In patent publication US4918056A, “2-substituted arabinopyranosyl nucleosides and nucleotides” (priority 1986, dated 1990):

Test system: L1210/0 leukemia
Assay: Therapeutic activity against i.p. inoculated L1210/0 leukemic mice
Assay type: in vivo, mouse (DBA/2N female)
Conditions: for Mean ± SD survival: control 6.7 ± 0.1; for Median survival: control 7
Description: The control group consisted of 20 mice injected with a 0.2 ml suspension of 0.5% Tween 80 in saline.

COC1OC[C@@H](OC(C)=O)[C@@H](OC(C)=O)[C@]1(F)n1ccc(=O)[nH]c1=O (stereo partly drawn) [compound 85024, Methyl 3,4-di-0-acetyl-2-deoxy-2(R)-[1H,3H-2,4-dioxo-1-pyrimidinyl]-2-fluoro-α-D-arabinopyranoside [5a] and methyl 3,4-di-0-acetyl-2-deoxy-2(R)-[1H,3H-2,4-dioxo-1-pyrimidinyl]-2-fluoro-β-D-arabinopyranoside [6a]]
Mean Animal Weight (on the day of death) (50 mkd × 5 i.p.): 23.4 g | Survival Range (50 mkd × 5 i.p.): 7 to 8 days | % ILS (increase in life span) (50 mkd × 5 i.p., N.S.): 7% | Mean ± SD survival (50 mkd × 5 i.p.): 7.2 ± 0.2 days | Median survival (50 mkd × 5 i.p.): 7 days | Mean Animal Weight (on the day of death) (100 mkd × 5 i.p.): 24.0 g | Survival Range (100 mkd × 5 i.p.): 8-8 days | % ILS (increase in life span) (100 mkd × 5 i.p., N.S.): 19% | Mean ± SD survival (100 mkd × 5 i.p.): 8.0 ± 0 days | Median survival (100 mkd × 5 i.p.): 8 days | Mean Animal Weight (on the day of death) (200 mkd × 5 i.p.): 22.0 g | Survival Range (200 mkd × 5 i.p.): 8 to 10 days | Mean ± SD survival (200 mkd × 5 i.p.): 8.8 ± 0.2 days | Median survival (200 mkd × 5 i.p.): 9 days | % ILS (increase in life span) (200 mkd × 5 i.p., p < 0.01): 31% | Mean Animal Weight (on the day of death) (400 mkd × 5 i.p.): 18.8 g | Survival Range (400 mkd × 5 i.p.): 9 to 11 days | Mean ± SD survival (400 mkd × 5 i.p.): 9.9 ± 0.2 days | Median survival (400 mkd × 5 i.p.): 10 days | % ILS (increase in life span) (400 mkd × 5 i.p., p < 0.01): 48% | Mean Animal Weight (on the day of death) (500 mkd × 5 i.p.): 17.3 g | Survival Range (500 mkd × 5 i.p.): 10 to 11 days | Mean ± SD survival (500 mkd × 5 i.p.): 10.4 ± 0.2 days | Median survival (500 mkd × 5 i.p.): 10 days | % ILS (increase in life span) (500 mkd × 5 i.p., p < 0.01): 55% | Mean Animal Weight (on the day of death) (600 mkd × 5 i.p.): 16.8 g | Survival Range (600 mkd × 5 i.p.): 7 to 11 days | Mean ± SD survival (600 mkd × 5 i.p.): 9.4 ± 0.8 days | Median survival (600 mkd × 5 i.p.): 10 days | % ILS (increase in life span) (600 mkd × 5 i.p., p < 0.5): 40% | Mean Animal Weight (on the day of death) (700 mkd × 5 i.p.): 16.6 g | Survival Range (700 mkd × 5 i.p.): 4 to 7 days | % ILS (increase in life span) (700 mkd × 5 i.p., N.S.): -10% | Mean ± SD survival (700 mkd × 5 i.p.): 6.0 ± 0.6 days | Median survival (700 mkd × 5 i.p.): 7 days | % ILS (increase in life span) (800 mkd × 5 i.p.): -70% | Mean Animal Weight (on the day of death) (800 mkd × 5 i.p.): 19.5 g | Survival Range (800 mkd × 5 i.p.): 2-2 days | Mean ± SD survival (800 mkd × 5 i.p.): 2.0 ± 0 days | Median survival (800 mkd × 5 i.p.): 2 days | dose of maximal therapeutic efficacy (5 day i.p. schedule, 1 dose per day days 1-5): 500 mg/kg/day | mortality due to drug toxicity (i.p. days 1-5, 800 mkd): eventual mortality due to drug toxicity | host toxicity (i.p. days 1-5, above 500 mkd, evidenced by increased weight loss): increased host toxicity
